In patent US9884825B2, “Curcumin analogs and methods of making and using thereof” (Georgia State University Research Foundation, Inc., priority 2012, dated 2018):
Read-outs that look alike come from different tables or passages of the source.

Legend:
[1] = test system: human cervical cancer cells (HeLa); experiment: MTT cytotoxicity assay, HeLa cells; assay type: cell-based; conditions: for IC50: Homo sapiens; for cytotoxicity against HeLa cells, in words: screening at 50 μM, 20 μM and 2 μM (FIGS. 1-2)
Description: (§1) Two cell human cancer cell lines were used in this study: human cervical cancer cells (HeLa) and human embryonic kidney 293 cells (Hek). The cell lines were obtained from ATCC (Rockville, Md., USA). Cell lines were cultured at 37° C. and 5% CO2 in DMEM medium with 10% fetal bovine serum (FBS) and 1% penicillin/streptomycin (all obtained from GibcoBRL, Grand Island, N.Y.). Cells were passaged three times weekly by trypsinisation with 0.25% trypsin/0.02% EDTA solution (Sigma) into 75 cm^2 tissue culture flasks (Nunc, Denamark).
(§2) Both human cervical cancer cells (HeLa) and human embryonic kidney 293 cells (Hek) cell lines were seeded into 96-well plate (2.5×10^4 in 100 μL per well). Testing compounds were dissolved or suspended in DMSO to make 10 mM stock solutions. Addition of compounds was performed after adherent cells reached 40-50% confluence. After incubation for 48 h at 37° C. in humidified atmosphere with 5% CO2, 10 μL of MTT (5 mg/mL in PBS) was added to each well and incubated for another 4 h. The culture medium was then aspirated and 100 μL of DMSO was added to each well. Optical densities at 490 nm were measured by microplate reader (PERKINELMER VICTOR 3V model 1420). All tests were performed in triplicates. Doxorubicin was used as a positive control and the same amount DMSO without compound was used as negative control. IC50 values were obtained from the curve fitting by using Sigma plot10.

Molt4 cell = experiment: Cytotoxicity against MOLT4 cell line; assay type: cell-based; conditions: Homo sapiens, MOLT-4; Table 3, SM compounds
[2] = test system: human embryonic kidney 293 cells (Hek); experiment: MTT cytotoxicity assay, Hek cells; assay type: cell-based; conditions: Hek 293 cells, 48 h incubation
Description: as §1, §2

KB cell = experiment: Cytotoxicity against KB cell line; assay type: cell-based; conditions: Homo sapiens, mean ± spread, unit inferred, read-out: IC50 KB cell (Table 6)
DU145 cell = experiment: Cytotoxicity against DU145 cell line; assay type: cell-based; conditions: Homo sapiens, DU-145, mean ± spread, unit inferred, read-out: IC50 DU145 cell (Table 6)
PC3 cell = experiment: Cytotoxicity against PC3 cell line; assay type: cell-based; conditions: Homo sapiens, PC-3, mean ± spread, unit inferred, read-out: IC50 PC3 cell (Table 6)
[3] = HeLa, Table 3, SM compounds, read-out: IC50 (μM) against Hela cell
[4] = HeLa cells, MTT assay, 48 h incubation, read-out: IC50 (μM) Hela
[5] = HeLa cells, MTT assay, range or bound stated in text, read-out: IC50 against HeLa cancer cell lines
[6] = HeLa cell, mean ± spread, unit inferred, read-out: IC50 HeLa cell (Table 6)

Compound	IC50 [1, 6] [µM]	IC50 (KB cell) [nM]	IC50 (DU145 cell) [nM]	IC50 (PC3 cell) [nM]	other results
COc1cc(/C=C2\CC/C(=C\c3ccc(OCCN4CCCCC4)c(OC)c3)C2=O)ccc1OCCN1CCCCC1 [SM226]	–	–	–	–	IC50 [1, 3]: 0.02 µM; IC50 (Molt4 cell): 0.4 µM
COc1cc(/C=C2\CC/C(=C\c3ccc(OCCn4ccnc4C)c(OC)c3)C2=O)ccc1OCCn1ccnc1C [SM232]	–	–	–	–	IC50 [1, 3]: 0.1 µM; IC50 (Molt4 cell): 0.9 µM
CCN1C/C(=C\c2ccc(C(C)C)cc2)C(=O)/C(=C/c2ccc(C(C)C)cc2)C1 [6g, 1-Ethyl-3,5-bis(4-isopropylbenzylidene)piperidin-4-one]	–	–	–	–	IC50 [1, 4]: 0.86 µM; IC50 [1, 5]: < 1 µM; cytotoxicity against HeLa cells, in words ([1]; MTT assay): very good activity; IC50 [2]: 1.78 µM; IC50 ([2]; Homo sapiens, HEK293, 48 h): 1.24 to 3.54 µM
O=C1/C(=C/c2ccc(Cl)cc2)CN(Cc2cn(CCCNc3ccnc4cc(Cl)ccc34)nn2)C/C1=C\c1ccc(Cl)cc1 [SR40]	1.8 ± 0.65	1800 ± 290	1900 ± 620	1800 ± 680	–
O=C1/C(=C/c2ccc(F)cc2)CN(Cc2cn(CCCNc3ccnc4cc(Cl)ccc34)nn2)C/C1=C\c1ccc(F)cc1 [SR39]	2.6 ± 1.4	2600 ± 690	5300 ± 2800	3000 ± 750	–
COc1cc(/C=C2\CC/C(=C\c3ccc(OCCN4CCOCC4)c(OC)c3)C2=O)ccc1OCCN1CCOCC1 [SM218]	–	–	–	–	IC50 [1, 3]: > 2.5 µM; IC50 (Molt4 cell): > 2.5 µM
O=C1/C(=C/c2ccc(Br)cc2)CN(S(=O)(=O)c2ccccc2)C/C1=C\c1ccc(Br)cc1 [4i, 3,5-Bis(4-bromobenzylidene)-1-(phenylsulfonyl)piperidin-4-one]	–	–	–	–	IC50 [1, 4]: 1.44 µM; IC50 [1, 5]: 0.3 to 1.5 µM; melting point: 247 °C
CCc1ccc(/C=C2\CN(Cc3cn(CCNc4ccnc5cc(Cl)ccc45)nn3)C/C(=C\c3ccc(CC)cc3)C2=O)cc1 [SR13]	5.3 ± 2.8	3700 ± 210	6500 ± 3000	3700 ± 2100	–
COc1cc(/C=C2\CC/C(=C\c3ccc(OCCBr)c(OC)c3)C2=O)ccc1OCCBr [SM216]	–	–	–	–	IC50 [1, 3]: > 2.5 µM; IC50 (Molt4 cell): > 50 µM
O=C1/C(=C/c2ccc(Cl)cc2)CN(S(=O)(=O)c2ccccc2)C/C1=C\c1ccc(Cl)cc1 [4e, 3,5-Bis(4-chlorobenzylidene)-1-(phenylsulfonyl)piperidin-4-one]	–	–	–	–	IC50 [1, 4]: 0.85 µM; IC50 [1, 5]: 0.3 to 1.5 µM; cytotoxicity against HeLa cells, in words ([1]; MTT assay): very good activity; IC50 [2]: 1.97 µM; IC50 ([2]; Homo sapiens, HEK293, 48 h): 1.24 to 3.54 µM; melting point: 237 °C
COc1ccc(/C=C2\CN(Cc3cn(CCCNc4ccnc5cc(Cl)ccc45)nn3)C/C(=C\c3ccc(OC)c(OC)c3)C2=O)cc1OC [SR38]	2.5 ± 1.3	2100 ± 50	6700 ± 4400	2600 ± 400	–
COc1cc(/C=C2\CC/C(=C\c3ccc(OCCN(C)C)c(OC)c3)C2=O)ccc1OCCN(C)C [SM229]	–	–	–	–	IC50 [1, 3]: 0.03 µM; IC50 (Molt4 cell): 0.5 µM
O=C1/C(=C/c2ccc(Cl)cc2)CN(Cc2cn(CCNc3ccnc4cc(Cl)ccc34)nn2)C/C1=C\c1ccc(Cl)cc1 [SR15]	2.1 ± 0.35	3000 ± 310	3100 ± 1300	3100 ± 1800	–
O=C1/C(=C/c2ccc(Br)cc2)CN(Cc2cn(CCNc3ccnc4cc(Cl)ccc34)nn2)C/C1=C\c1ccc(Br)cc1 [SR14]	2.7 ± 1.3	1200 ± 320	6600 ± 4600	1500 ± 240	–
Cc1ccc(/C=C2\CN(Cc3cn(CCCNc4ccnc5cc(Cl)ccc45)nn3)C/C(=C\c3ccc(C)cc3)C2=O)cc1 [SR34]	2.8 ± 0.93	4700 ± 1100	4000 ± 490	2700 ± 800	–
Cc1ccc(S(=O)(=O)N2C/C(=C\c3ccc(Br)cc3)C(=O)/C(=C/c3ccc(Br)cc3)C2)cc1 [3a, 3,5-Bis(4-bromobenzylidene)-1-tosylpiperidin-4-one]	–	–	–	–	IC50 [1, 4]: 0.28 µM; IC50 [1, 5]: 0.3 to 1.5 µM; cytotoxicity against HeLa cells, in words ([1]; MTT assay): very good activity; IC50 [2]: 1.39 µM; IC50 ([2]; Homo sapiens, HEK293, 48 h): 1.24 to 3.54 µM; melting point: 214 °C
O=C1/C(=C/c2ccc(F)cc2)CN(Cc2cn(CCNc3ccnc4cc(Cl)ccc34)nn2)C/C1=C\c1ccc(F)cc1 [SR16]	2.2 ± 0.93	2600 ± 410	3700 ± 2400	2000 ± 50	–
O=C1/C(=C/c2cccc(Br)c2)CN(Cc2cn(CCNc3ccnc4cc(Cl)ccc34)nn2)C/C1=C\c1cccc(Br)c1 [SR17]	2.5 ± 1.2	4300 ± 2400	9600 ± 7300	2800 ± 800	–
COc1cc(/C=C2\CC/C(=C\c3ccc(OCCn4ccnc4)c(OC)c3)C2=O)ccc1OCCn1ccnc1 [SM223]	–	–	–	–	IC50 [1, 3]: > 2.5 µM; IC50 (Molt4 cell): > 2.5 µM
COc1ccc(/C=C2\CN(Cc3cn(CCCNc4ccnc5cc(Cl)ccc45)nn3)C/C(=C\c3ccc(OC)cc3)C2=O)cc1 [SR37]	5 ± 2.2	4700 ± 870	6700 ± 1900	11000 ± 2700	–
COc1cccc2c1C(=O)c1c(O)c3c(c(O)c1C2=O)C[C@@](O)(C(=O)CO)C[C@@H]3O[C@H]1C[C@H](N)[C@H](O)[C@H](C)O1 [Doxorubicin, reference compound]	0.96 ± 0.27	400 ± 110	470 ± 250	230 ± 10	IC50 [1, 4]: 2.89 µM; IC50 ([2]; Homo sapiens, HEK293, 48 h): 0.95 µM
Cc1ccc(S(=O)(=O)N2C/C(=C\c3ccc(F)cc3)C(=O)/C(=C/c3ccc(F)cc3)C2)cc1 [3j, 3,5-Bis(4-fluorobenzylidene)-1-tosylpiperidin-4-one]	–	–	–	–	IC50 [1, 4]: 0.61 µM; IC50 [1, 5]: 0.3 to 1.5 µM; IC50 [2]: 1.24 µM; IC50 ([2]; Homo sapiens, HEK293, 48 h): 1.24 to 3.54 µM; melting point: 204 °C
O=C1/C(=C/c2ccc(Br)cc2)CN(Cc2cn(CCCNc3ccnc4cc(Cl)ccc34)nn2)C/C1=C\c1ccc(Br)cc1 [SR36]	2 ± 1.2	1500 ± 300	1900 ± 590	1700 ± 240	–
CCCCCn1cc(CN2CC(=Cc3ccc(CC)cc3)C(=O)C(=Cc3ccc(CC)cc3)C2)nn1 [12c, 3,5-Bis(4-ethylbenzylidene)-1-((1-pentyl-1H-1,2,3-triazol-4-yl)methyl)piperidin-4-one]	–	–	–	–	melting point: 156 °C
CCc1ccc(/C=C2\CN(Cc3ccccc3)C/C(=C\c3ccc(CC)cc3)C2=O)cc1 [5c, 1-Benzyl-3,5-bis-(4-ethyl-benzylidene)-piperidin-4-one]	–	–	–	–	melting point: 119 °C
